Results as given in patent US6737383B1, “Herbicidal oxadiazolidines” (priority 1999, dated 2004).

Experiments:
blackgrass [1] = assay: Test E blackgrass; type: in vivo, Alopecurus myosuroides; details: Preemergence
blackgrass [2] = assay: Test B pre/postemergence blackgrass; type: in vivo, Alopecurus myosuroides
How it was run: (§1)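 Response is a visual 0-to-10 score relative to untreated plants, where 0 means no effect and 10 means complete control, taken twelve to sixteen days after application. Treatments went onto soil at planting and onto foliage of 1- to 4-leaf plants, using a surfactant-containing non-phytotoxic solvent.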

winter wheat [3] = assay: Test E winter wheat; type: in vivo, Triticum aestivum; details: Preemergence
wild oat = assay: Test E wild oat; type: in vivo, Avena fatua; details: Preemergence
winter barley = assay: Test E winter barley; type: in vivo, Hordeum vulgare; details: Preemergence
bedstraw = assay: Test B pre/postemergence bedstraw; type: in vivo, Galium aparine
How it was run: as §1

soybean = assay: Test B pre/postemergence soybean; type: in vivo, Glycine max
How it was run: as §1

green foxtail = assay: Test E green foxtail; type: in vivo, Setaria viridis; details: Preemergence
Italian ryegrass = assay: Test E Italian ryegrass; type: in vivo, Lolium multiflorum; details: Preemergence
velvetleaf = assay: Test B pre/postemergence velvetleaf; type: in vivo, Abutilon theophrasti
How it was run: as §1

winter wheat [4] = assay: Test E winter wheat; type: in vivo, Triticum aestivum; details: Postemergence
How it was run: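 Visually scored herbicidal effect relative to untreated plants, taken ~21 to 28 days post-application; compound in solvent with surfactant; postemergence sprays at the 1- to 4-leaf stage.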

[5] = Rate 125 g/ha, 0 to 100 scale (0 no effect, 100 complete control)
[6] = Postemergence, Rate 31 g/ha, visual rating, scale 0 to 10 (0 no effect, 10 complete control)
[7] = Preemergence, Rate 31 g/ha, visual rating, scale 0 to 10 (0 no effect, 10 complete control)
[8] = Preemergence, Rate 62 g/ha, scale of 0 to 10 where 0 is no effect and 10 is complete control
[9] = Preemergence, Rate 250 g/ha, scale of 0 to 10 where 0 is no effect and 10 is complete control
[10] = Rate 62 g/ha, Postemergence, scale 0 to 10 (0 no effect, 10 complete control)
[11] = Rate 125 g/ha, Postemergence, scale of 0 to 10 where 0 is no effect and 10 is complete control
[12] = Rate 125 g/ha, Preemergence, scale of 0 to 10 where 0 is no effect and 10 is complete control
[13] = Rate 250 g/ha, Postemergence, scale of 0 to 10 where 0 is no effect and 10 is complete control

Compound: CCOCn1c(=O)on(C(=O)N(c2ccc(F)cc2)C(C)C)c1=O [Compound 295]
- Plant response rating, Blackgrass (blackgrass [1]; [5]): 0
- Blackgrass plant response rating (0 to 100 scale) (blackgrass [1]; Rate 250 g/ha): 10
- Blackgrass plant response rating (blackgrass [2]; [6]): 0
- Blackgrass plant response rating (blackgrass [2]; [7]): 4
- Blackgrass plant response rating (blackgrass [2]; [8]): 5
- Blackgrass plant response rating (blackgrass [2]; [9]): 10
- Blackgrass plant response rating (blackgrass [2]; [10]): 2
- Blackgrass plant response rating (blackgrass [2]; [11]): 7
- Blackgrass plant response rating (blackgrass [2]; [12]): 10
- Plant response rating, Blackgrass (blackgrass [2]; [13]): 9
- Plant response rating, Wheat (winter) (winter wheat [3]; [5]): 40
- Wheat (winter) plant response rating (0 to 100 scale) (winter wheat [3]; Rate 250 g/ha): 60
- Plant response rating, Wild oat (wild oat; [5]): 0
- Wild oat plant response rating (0 to 100 scale) (wild oat; Rate 250 g/ha): 10
- Plant response rating, Barley (winter) (winter barley; [5]): 20
- Barley (winter) plant response rating (0 to 100 scale) (winter barley; Rate 250 g/ha): 30
- Bedstraw plant response rating (bedstraw; [6]): 0
- Bedstraw plant response rating (bedstraw; [7]): 0
- Bedstraw plant response rating (bedstraw; [8]): 0
- Bedstraw plant response rating (bedstraw; [9]): 0
- Bedstraw plant response rating (bedstraw; [10]): 0
- Bedstraw plant response rating (bedstraw; [11]): 4
- Bedstraw plant response rating (bedstraw; [12]): 0
- Plant response rating, Bedstraw (bedstraw; [13]): 4
- Soybean plant response rating (soybean; [6]): 1
- Soybean plant response rating (soybean; [7]): 0
- Soybean plant response rating (soybean; [8]): 0
- Soybean plant response rating (soybean; [9]): 0
- Soybean plant response rating (soybean; [10]): 2
- Soybean plant response rating (soybean; [11]): 2
- Soybean plant response rating (soybean; [12]): 0
- Plant response rating, Soybean (soybean; [13]): 4
- Plant response rating, Green foxtail (green foxtail; [5]): 50
- Green foxtail plant response rating (0 to 100 scale) (green foxtail; Rate 250 g/ha): 100
- Plant response rating, I. Ryegrass (Italian ryegrass; [5]): 40
- I. Ryegrass plant response rating (0 to 100 scale) (Italian ryegrass; Rate 250 g/ha): 50
- Velvetleaf plant response rating (velvetleaf; [6]): 0
- Velvetleaf plant response rating (velvetleaf; [7]): 0
- Velvetleaf plant response rating (velvetleaf; [8]): 0
- Velvetleaf plant response rating (velvetleaf; [9]): 3
- Velvetleaf plant response rating (velvetleaf; [10]): 0
- Velvetleaf plant response rating (velvetleaf; [11]): 0
- Velvetleaf plant response rating (velvetleaf; [12]): 0
- Plant response rating, Velvetleaf (velvetleaf; [13]): 5
- Plant response rating, Wheat (winter) (winter wheat [4]; Rate 125 g/ha, 0 to 100 scale, 0 is no effect, 100 is complete control): 30
- Wheat (winter) plant response rating (winter wheat [4]; Rate 250 g/ha, 0 to 100 scale where 0 is no effect and 100 is complete control): 50
